Legend:
mouse myoblasts = test: In vitro mouse myoblast invasion assay across Matrigel barrier; assay type: cell-based; conditions: 24 hours; for effect on bFGF-stimulated mouse myoblast invasion: 0.05 units/ml plasmin or 50 mM NAC; for increase of mouse myoblast invasion across Matrigel barrier over the control: 25 ng/ml bFGF, 50 μg/ml fibronectin
Description: Mouse myoblasts were previously isolated from hind limb muscles of 4-6 week old severe combined immunodeficient (SCID) mice and clonally purified from contaminating fibroblasts (Yao et al. “Primary myoblast-mediated gene: transfer: persistent expression of human factor IX in mice” Gene Therapy 1:99-107, 1994). Myoblasts (approximately 1×10^6 cells) were plated on 6 cm tissue culture plates coated with 0.5% gelatin (Sigma, St. Louis, Mo.) and grown in growth medium consisting of Dulbecco's Modified Eagle Medium (DMEM) (Gibco BRL, Gaithersburg Md.) supplemented with 20% fetal bovine serum (FBS; Gibco) and 0.5% chick embryo extract (CEE; Gibco). All animal studies were carried out following the institutional guidelines for ethical animal use. Human myoblasts were isolated using trypsin digestion from abdominal wall or chest wall muscle biopsies, and surgery. Written consent was obtained from all patients prior to biopsy isolation as approved by the University Hospital's Institutional Regulation Board on the use of human subjects. Cells were preplated on uncoated plates for 1 hour to separate muscle fibroblasts. […] All experiments were done with myoblasts of passage 7 or lower. Myoblast migration and invasion were examined using a commercially available in vitro cell migration and invasion assay kit (Biocoat, Becton Dickinson, Franklin Lakes, N.J.) as described by Albini et al. (A rapid in vitro assay for quantitating the invasive potential of tumor cells Cancer Res 47:3239-3245, 1987). Myoblasts were grown to approximately 70% confluence, rinsed three times in serum-free DMEM, followed by incubation for 3 hours in 0.2% bovine serum albumin (BSA) in DMEM to eliminate the effects of serum. Cells were then trypsinized and collected by centrifugation. Cells were resuspended in serum-free DMEM at a density of 1×10^5 cells/ml, and 0.5 ml aliquots of cell suspension were added to the top chamber. […] Fibronectin subfragments of 45 KDa (Sigma), 120 kDa (Gibco), 63 kDa (Retronectin, Takara) and 70 KDa (Sigma) were used alone or in combination. […] For migration studies, the upper chamber membrane was coated with 0.1% gelatin and cells were allowed to migrate for 8-12 hours, while for invasion studies, the upper membrane was coated with 5 μl of Matrigel® diluted to 5 mg/ml in sterile phosphate buffered saline (PBS) and cells were allowed to invade for 24 hours. The top side of the insert membrane was scrubbed free of cells using a cotton swab and the bottom side was stained using the Leukostat-I system (Fisher Diagnostics, Pittsburgh, Pa.). The number of cells per field was counted in 10 randomly selected fields and averaged for each condition. To evaluate the effects of inactivation or activation of MMPs, aliquots (0.05 units in 50 μl PBS) of purified human plasmin (Sigma) or 50 mM N-acetyl cysteine (NAC; Sigma) were added with the cells to the top chamber of the migration assay and growth factor was added to the bottom. […] Myoblasts (5×10^4 cells/well) were stimulated with various growth factors and fibronectin, and their ability to migrate or invade through a Matrigel® barrier (panel a, mouse myoblast migration at 12 hours; panel b, mouse myoblast invasion at 24 hours). […] Bars represent mean ±SEM from a minimum of 3 separate experiments.

MMP-9 = test: Gelatin zymography of mouse myoblast culture medium, MMP-9; assay type: cell-based
Description: Briefly, myoblasts were grown in 6 cm tissue culture plates to approximately 70% confluence, then rinsed three times with serumfree DMEM and incubated for 3 hours in DMEM containing 0.2% BSA to eliminate the effects of serum. Growth factors were added and cells were incubated for 24 hours. Culture medium was then collected, centrifuged to pellet detached cells, and concentrated ten-to twenty-fold using the Centricon-10 (Amicon, Beverly, Mass.) system. The protein concentration of the supernatants was determined using the Bio-Rad protein microassay system with BSA used as the standard. Samples were stored at −70° C. until use. For gelatin zymography, aliquots (10 μg as the total protein per sample) were electrophoresed at constant voltage on a 10% polyacrylamide gel containing 2 mg/ml gelatin. The gel was rinsed three times for 15 min in 2.5% Triton-X 100 to remove SDS and renature the proteins, then incubated in MMP activation buffer (0.05 M Tris-HCl, pH 7.5 with 5 mM CaCl2) for 24 hours at 37° C. with constant shaking. Gels were stained overnight in 0.5% Coomassie blue R-250, and destained for 1 hour in 40% methanol: 10% acetic acid. Proteinase activity was quantified by densitometric scanning of bands using a Bio-Rad Gel Doc 1000 video camera imaging system (Bio Rad, Hercules, Calif.). […]

MMP-2 = test: Gelatin zymography of mouse myoblast culture medium, MMP-2; assay type: cell-based
Description: Briefly, myoblasts were grown in 6 cm tissue culture plates to approximately 70% confluence, then rinsed three times with serumfree DMEM and incubated for 3 hours in DMEM containing 0.2% BSA to eliminate the effects of serum. Growth factors were added and cells were incubated for 24 hours. Culture medium was then collected, centrifuged to pellet detached cells, and concentrated ten-to twenty-fold using the Centricon-10 (Amicon, Beverly, Mass.) system. The protein concentration of the supernatants was determined using the Bio-Rad protein microassay system with BSA used as the standard. Samples were stored at −70° C. until use. For gelatin zymography, aliquots (10 μg as the total protein per sample) were electrophoresed at constant voltage on a 10% polyacrylamide gel containing 2 mg/ml gelatin. The gel was rinsed three times for 15 min in 2.5% Triton-X 100 to remove SDS and renature the proteins, then incubated in MMP activation buffer (0.05 M Tris-HCl, pH 7.5 with 5 mM CaCl2) for 24 hours at 37° C. with constant shaking. Gels were stained overnight in 0.5% Coomassie blue R-250, and destained for 1 hour in 40% methanol: 10% acetic acid. Proteinase activity was quantified by densitometric scanning of bands using a Bio-Rad Gel Doc 1000 video camera imaging system (Bio Rad, Hercules, Calif.). […] Values are arbitrary densitometric units, which are normalized to DMEM control for each experiment and shown as values ±SEM representing a minimum of 3 experiments per condition. […] Mouse myoblasts were treated for 24 hours with either DMEM alone, fibronectin (50 μg/ml), or individual fragments (37.5 μg/ml) of 45, 120, 63 (Retronectin), 75 kDa and their combinations, 45 kDa/120 kDa and 120 kDa/63 kDa.

[1] = tested on: SCID mouse vastus musculature; test: Myoblast implantation in vivo: incorporation of β-GAL-marked myoblasts into host myofibers; conditions: myoblasts stimulated before implantation with 1 μg/ml bFGF, 50 μg/ml fibronectin or both; SCID mice, 3 weeks; 4 animals
Description: All animal studies were carried out following the institutional guideline for animal use. For in vivo studies, SCID mouse myoblasts transduced with a BAG retrovirus containing the beta-galactosidase (β-GAL) reporter gene and selected as previously described (Yao and Kurachi “Implanted myoblasts not only fuse with myofibers but also survive as muscle precursor cells” J. Cell Sci 105:957-963, 1993), were grown in growth medium on 15 cm plates. When cells reached 70% confluence they were harvested by trypsinization using standard methods, rinsed twice in phosphate buffered saline (PBS), and resuspended in DMEM containing either bFGF (1 μg/ml), fibronectin (50 μg/ml) or both, at a concentration of 2×10^7 cells/ml. […]
Muscle sections were stained for β-GAL activity using the standard histochemical staining procedure (Rando et al. “The fate of myoblasts following transplant into mature muscle” Exper. Cell Res. 220:383-389, 1995). […] The total number of β-GAL-positive fibers (stained blue) per section was counted for 5 different sections spanning the entire injection site for each animal and averaged. […]
The number of β-GAL positive myofibers were quantified after implantation of BAG-transduced SCID myoblasts treated with DMEM alone (control), 1 μg/ml bFGF, 50 μg/ml fibronectin, or 1 μg/ml bFGF+50 μg/ml fibronectin. […]

[2] = mouse myoblasts treated 24 hours

CC(=O)N[C@@H](CS)C(=O)O [NAC, N-acetyl cysteine, reference compound]
effect on bFGF-stimulated mouse myoblast invasion (mouse myoblasts): drastically reduced such stimulatory effects to the control levels

bovine basic fibroblast growth factor [bFGF]
increase of mouse myoblast invasion across Matrigel barrier over the control (mouse myoblasts): approximately 7 fold
MMP-9 expression (110 kDa band) over the DMEM control level (MMP-9; [2]): ~10 fold
increase of total MMP-2 expression (MMP-2; mouse myoblasts treated 24 hours, densitometry normalized to DMEM control): 49%
increase in the number of β-GAL-positive myofibers over control [1]: 2.3 fold

human serum fibronectin
increase of mouse myoblast invasion across Matrigel barrier over the control (mouse myoblasts): 4 fold
effect on MMP-9 expression (MMP-9; mouse myoblasts): does not significantly affect
MMP-2 proteolytic activation (64 and 62 kDa forms) (MMP-2; [2]): substantial proteolytic conversion to the activated and intermediate forms
increased MMP-2 expression (MMP-2; mouse myoblasts, soluble fibronectin 24 hours): approximately 2 fold
increase in the number of β-GAL-positive myofibers over control [1]: 2 fold

B1: purified human plasmin (protein, UniProt P00747 20-580; P00747 581-810, looked up)
Plasmin heavy chain A: EPLDDYVNTQGASLFSVTKKQLGAGSIEECAAKCEEDEEFTCRAFQYHSKEQQCVIMAENRKSSIIIRMRDVVLFEKKVYLSECKTGNGKNYRGTMSKTKNGITCQKWSSTSPHRPRFSPATHPSEGLEENYCRNPDNDPQGPWCYTTDPEKRYDYCDILECEEECMHCSGENYDGKISKTMSGLECQAWDSQSPHAHGYIPSKFPNKNLKKNYCRNPDRELRPWCFTTDPNKRWELCDIPRCTTPPPSSGPTYQCLKGTGENYRGNVAVTVSGHTCQHWSAQTPHTHNRTPENFPCKNLDENYCRNPDGKRAPWCHTTNSQVRWEYCKIPSCDSSPVSTEQLAPTAPPELTPVVQDCYHGDGQSYRGTSSTTTTGKKCQSWSSMTPHRHQKTPENYPNAGLTMNYCRNPDADKGPWCFTTDPSVRWEYCNLKKCSGTEASVVAPPPVVLLPDVETPSEEDCMFGNGKGYRGKRATTVTGTPCQDWAAQEPHRHSIFTPETNPRAGLEKNYCRNPDGDVGGPWCYTTNPRKLYDYCDVPQCAAPSFDCGKPQVEPKKCPGR
Plasmin light chain B: VVGGCVAHPHSWPWQVSLRTRFGMHFCGGTLISPEWVLTAAHCLEKSPRPSSYKVILGAHQEVNLEPHVQEIEVSRLFLEPTRKDIALLKLSSPAVITDKVIPACLPSPNYVVADRTECFITGWGETQGTFGAGLLKEAQLPVIENKVCNRYEFLNGRVQSTELCAGHLAGGTDSCQGDSGGPLVCFEKDKYILQGVTSWGLGCARPNKPGVYVRVSRFVTWIEGVMRNN
modifications: Plasmin
effect on bFGF-stimulated mouse myoblast invasion (mouse myoblasts): further increased the effects of bFGF
effect on invasion stimulated by combination of bFGF and fibronectin (mouse myoblasts; plasmin): lowered the greatly enhanced effects

Reference: patent publication US20010055590A1, “Method for enhancing myoblast migration and invasion in the context of gene therapy” (priority 1999, published 2001)
